The subject of assay [1] is DU145 prostate carcinoma cells. In words: Antiproliferative activity assay (crystal violet staining). It is filed as cell-based. The conditions noted are these: Homo sapiens, DU-145, as determined after 48 h, means ± SEM, n ≥ 3, read-out: Growth inhibitory activity IC50, DU145. The protocol: (§1) Stock solutions (10 mM) prepared by dissolution in DMSO were stored at −20 °C. Working solutions were always freshly prepared before each experiment by dilution of stock solution with medium. The final DMSO concentration never exceeded 0.25%. Treatment-induced changes in cell number were determined by crystal violet (N-hexamethylpararosaniline from Sigma Aldrich) staining. 1000 cells/well (DU145) or 1500 cells/well (Hep-G2) were seeded in 96-well plates and maintained for adherence in an incubator (37 °C, 5% CO2, humidified atmosphere) for 48 h prior to the beginning of the treatment. […] Thereafter, the cells were fixed with 1% glutaraldehyde and stained with 0.1% crystal violet. The unbound dye was removed by rinsing with water. Bound crystal violet was solubilized with 0.2% Triton X-100 (Sigma-Aldrich). Light extinction of crystal violet, which increases linearly with the cell number, was analyzed at 570 nm using an ELISA-Reader (Dynex Technologies, Denkendorf, Germany). For T-cell leukemia/lymphoma cell lines apoptosis was determined using dual staining for Annexin-V and 7AAD via flow cytometry.

Assay [2] has as its system Hep-G2 hepatoblastoma cells. The assay is described as above. It is filed as cell-based. Particulars: Homo sapiens, HepG2, as determined after 48 h, means ± SEM, n ≥ 3, read-out: Growth inhibitory activity IC50, Hep-G2. The protocol:
as §1

Another assay has as its system Hut78 cells. In words: IC50 by Annexin-V/7AAD dual staining, flow cytometry. It is filed as cell-based. Particulars: Homo sapiens, as determined after 48 h, means ± SEM, n ≥ 3, read-out: Growth inhibitory activity IC50, Hut78. The protocol: as §1
(A flow cytometer gives signals particle by particle.)

A further assay has as its system Jurkat cells. Described as above. It is filed as cell-based. Particulars: Homo sapiens, as determined after 48 h, means ± SEM, n ≥ 3, read-out: Growth inhibitory activity IC50, Jurkat. The protocol:
as §1

Another assay concerns SMZ1 cells. The description is as above. Particulars: Homo sapiens, as determined after 48 h, means ± SEM, n ≥ 3, read-out: Growth inhibitory activity IC50, SMZ1. In kind it is cell-based. The protocol: as §1
The next assay relates to SupT11 cells. The description is as above. The conditions noted are these: Homo sapiens, as determined after 48 h, means ± SEM, n ≥ 3, read-out: Growth inhibitory activity IC50, SupT11. In kind it is cell-based. The protocol: as §1
Assay [3] deals with caspase-3 activity in DU145 cells. Briefly: Apoptosis-specific caspase-3 activation (AC-DEVD-AMC cleavage). In kind it is cell-based, human. Particulars: 24 h treatment, 1–10 µM. The protocol:
(§2) Changes in caspase-3 activity were measured by the cleavage of the fluorogenic substrate AC-DEVD-AMC (EMD Millipore, Billerica, MA, USA), as described previously. […] Subsequently, the lysates were incubated for 1 h at 37 °C with a substrate solution containing 20 μg/mL AC-DEVD-AMC, 20 mM HEPES, 10% glycerol and 2 mM DTT at pH 7.5.

The subject of assay [4] is caspase-3 activity in Hep-G2 cells. The description is as above. It is filed as cell-based, human. The conditions noted are these: 24 h treatment, 1–10 µM. The protocol: as §2
Another assay relates to DU145 cells. Briefly: Cytosolic ROS formation (CellROX Orange fluorescence microscopy). The conditions noted are these: 6–24 h. It is filed as cell-based, human. The protocol:
(§3) Untreated cells incubated with 1.6 mM H2O2 for 30 min served as positive controls. CellROX® Orange reagent (1 µM) was applied, when adding the test compounds. Formation of ROS was measured after 3 h, 6 h, 12 h (not shown) and 24 h using ZOE™ Fluorescent Cell Imager (Biorad, Munich, Germany). n = 3 independent experiments performed in triplicate for each condition.

The test system of assay [5] is Hep-G2 cells. The assay is described as above. In kind it is cell-based, human. Particulars: 6–24 h. The protocol: as §3
The test system of assay [6] is Human HDAC enzymes derived from HeLa cell nuclear extracts (pan-HDAC). In words: Fluorogenic pan-HDAC activity assay. In kind it is biochemical. The conditions noted are these: cell free, 1–10 µM tested.
Another assay concerns the target T1, human recombinant HDAC1 (Homo sapiens, UniProt Q13547).
T1 construct: purchased BPS Biosciences, San Diego, CA, USA
Briefly: Fluorogenic subtype-specific HDAC assay. It is filed as biochemical. The conditions noted are these: cell-free enzymatic assay, 1–10 µM.

In assay [7] the test system is Hep-G2 cells. Briefly: Western blot in Hep-G2 cells (acetyl-H3, Apaf-1, Bcl-2). In kind it is cell-based, human. Particulars: 24 h. The protocol:
Western blots were performed as described earlier. Cells were seeded in 100 mm petri dishes, grown to almost confluency, treated for 24 h, washed and frozen, followed by lysis with RIPA Buffer, added with one cOmplete™ Mini protease Inhibitor tablet/10 mL (Roche), and quantification with Pierce^TM BCA Protein Assay Kit (Thermo Fisher Scientific). Thereafter protein levels were normalized to untreated controls so equal protein loading of 20 µg/lane. Laemmli Buffer and β-mercaptoethanol were added before probes were desaturated at 96 °C for 10 min. First, 7.5% or 12% SDS gels (Biorad, Munich, Germany) were loaded with proteins and electrophoresis was done. Thereafter, proteins were transferred to activated polyvinylidene difluoride membranes (PVDF) by electroblotting. Finally, the membranes were blocked with 1% BSA and incubated with primary antibodies over night at 4 °C. […] Only the Jurkat cells had already a high level of α-tubulin in untreated cells and, thus, drug-induced changes were not detectable in these cells.
Blots were washed three times with 1% TBS-Tween and incubated with anti-mouse or anti-rabbit peroxidase-coupled anti-IgG secondary antibodies (1:5000–1:10,000) at room temperature for 60 min. Subsequently, antibody bondage was illustrated using Clarity and Clarity Max ECL Western Blotting Substrates (Biorad, Munich, Germany) for detection and Celvin-S developer (Biostep, software SnapAndGo Vs 1.8.1) for development. […] Values were normalized to β-actin expression, which served as a loading control and compared to untreated control expressions which was set at 1. The mean ± SEM of the relative values to control are illustrated with Graph Pad Prism 8.
Background: A western blot detects proteins with antibodies after separation by electrophoresis.

Assay [8] relates to DU145 prostate tumor cells. Briefly: Scratch assay (migration). It is filed as cell-based, human. The conditions noted are these: 5 µM and 10 µM, 24 h. The protocol: To investigate the anti-migratory effects of SF5-SAHA scratch assays were performed as described. In brief, cells were grown to sub-confluency in 6-well plates. The cell monolayer was then scratched using a pipet tip. Cells at the edge of this artificial gap migrate into the cell-free area to close the gap in a time-dependent manner. DU145 cells were seeded at a density 1.5 × 10^5 cells/well and treated with SF5-SAHA (0–10 µM) for 24 h and bright-field images were taken before and after 12 h and 24 h of treatment using a an EVOS M5000 microscope (Thermo Fischer Scientific, Waltham MA, USA). The experiments were performed n = 3.

T1 sequence (Q13547 whole entry): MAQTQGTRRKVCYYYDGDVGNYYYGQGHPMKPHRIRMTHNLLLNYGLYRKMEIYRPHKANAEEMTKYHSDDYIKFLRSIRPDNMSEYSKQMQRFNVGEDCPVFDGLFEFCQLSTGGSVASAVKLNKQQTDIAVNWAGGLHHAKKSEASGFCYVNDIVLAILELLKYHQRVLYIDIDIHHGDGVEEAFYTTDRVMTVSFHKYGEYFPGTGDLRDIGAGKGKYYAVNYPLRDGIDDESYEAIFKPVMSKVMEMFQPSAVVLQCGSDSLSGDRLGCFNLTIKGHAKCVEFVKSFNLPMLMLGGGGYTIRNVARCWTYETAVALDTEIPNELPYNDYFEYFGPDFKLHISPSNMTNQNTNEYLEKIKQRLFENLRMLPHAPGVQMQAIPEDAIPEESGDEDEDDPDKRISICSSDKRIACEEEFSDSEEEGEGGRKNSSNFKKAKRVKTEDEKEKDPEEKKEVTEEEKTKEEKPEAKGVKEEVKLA

As to `O=C(CCCCCCC(=O)Nc1ccc(S(F)(F)(F)(F)F)cc1)NO` [SF5-SAHA], the IC50 was determined as 730 ± 1080 nM in assay [1]; 1790 ± 1060 nM in assay [2]; 2400 ± 400 nM with Hut78 cells; 760 ± 60 nM with Jurkat cells; 1580 ± 290 nM in the assay with SMZ1 cells; 3080 ± 330 nM with SupT11 cells. The caspase-3 activation in [3] and in [4] was 5–6 times of the activity of untreated cells each time. Further, the “cytosolic ROS formation” value in the assay on DU145 cells is “pronounced time- and dose-dependent increase in cytosolic ROS”; with Hep-G2 cells [5] it was “pronounced time- and dose-dependent increase in cytosolic ROS”. Further, in assay [6], the “pan-HDAC inhibition IC50 (in words)” value is given as “submicromolar range”. Further, the “HDAC1 inhibition (comparison)” value at human recombinant HDAC1 was “comparable activities against HDAC1”. In the assay with Hep-G2 cells [7] (2 µM and 4 µM), the Bcl-2 expression result is listed as “downregulated”. Besides, the Apaf-1 expression result in the assay with Hep-G2 cells [7] (2 and 4 µM) is “increased Apaf-1 expression”. In addition, the “acetylated histone H3 level” value in the assay with Hep-G2 cells [7] is “dose-dependent rise of H3 acetylation”. The “migratory activity (scratch assay)” value in assay [8] is “reduced migratory activity”.

The term IC50 denotes the midpoint of a concentration-inhibition curve.

Source of the values: publication PMC8704709, “Improved Anticancer Activities of a New Pentafluorothio-Substituted Vorinostat-Type Histone Deacetylase Inhibitor” (Pharmaceuticals, 2021).
